Here are results for 25 compounds from patent US7265152B2 (ViroPharma Incorporated, priority 2002, dated 2007).

The target in one experiment is T1, HCV NS5B (Hepatitis C virus genotype 1b, UniProt Q9WMX2).
T1 construct: fusion protein, of which the carboxyl terminal 21 amino acids were removed to enhance its solubility; His tag (GSHHHHHH); made in house; host or cells: E. coli
Kind of experiment: Inhibition of viral RNA-dependent RNA polymerase (RdRp), in vitro biochemical assay. Also on record: species or system HCV genotype 1b virus (BB7). The settings on record: purified His-tagged NS5B (BB7), carboxyl terminal 21 amino acids removed; read-out: HCV pol-BB7 IC50. The method in brief:
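Purified recombinant NS5B from a genotype 1b consensus (BB7), His-tagged, E. coli-expressed, with the C-terminal 21 residues deleted. Inhibition of RdRp activity in vitro was measured, and IC50 is the concentration giving 50% inhibition.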

The test system of experiment [1] is HCV replicon (BB7 sequence) in Huh-7-Clone A cells. Description: HCV replicon assay: ELISA of NS5A protein in replicon-containing cells (Inhibition of Viral RNA Replication). Type of experiment: cell-based. The settings on record: Hepatitis C virus; Huh-7-Clone A, NS5A ELISA, 72-hour incubation; ranges of EC50; read-out: Replicon. From the text:
Antiviral activity of representative compounds of the invention was first evaluated in a human liver-derived cell line (Huh-7-Clone A) containing the HCV replicon (BB7 sequence) (See Lohmann et al. Science. 1999, 285:110-3; Blight K J et al., Science. 2000, 290:1972-4; Pietschmann, T. et al., J. Virol. 2001, 73:1252-1264; and Lohmann, V. et al., J. Virol. 2001, 75:1437-1449). The HCV replicon is a subgenomic viral RNA that expresses the HCV proteins required for its own replication. These proteins include non-structural proteins NS3, NS4A, NS4B, NS5A and NS5B. The replicon also contains a foreign gene encoding a drug-selectable marker (neomycin phosphotransferase) to allow for G418 (neomycin) selection of cells that contain the replicon.
An ELISA (enzyme-linked immunosorbant assay) was used to determine the effect of compounds within the scope of the invention on the amount of HCV NS5A protein produced after a 72-hour incubation of the replicon-containing cells in the presence of varying concentrations of compound. COSTAR® 96-well cell culture plates were used but other known cell culture plates may be used. After incubation, media is removed from wells and the cells are fixed to the assay plate using 0.05% glutaraldehyde. The glutaraldehyde is then washed off using phosphate-buffered saline (PBS) following a 1 hour incubation and cells are blocked for non-specific antibody binding using for example SUPERBLOCK® reagent (blocking buffer) in PBS. The blocking agent is rinsed from the cells with PBS after 1 hour at 37° C. and primary monoclonal antibody is added to each well containing compound. Primary antibody is incubated for 1 hour at 37° C. and rinsed 3 times with PBS containing 0.02% TWEEN-20™ before addition of Horseradish Peroxidase (HRP) conjugated secondary antibody. HRP is incubated for 1 hour at 37° C. and rinsed several times, first with PBS/TWEEN-20™ followed by PBS alone. To quantify peroxidase activity, 3,3′,5, 5′-tetramethylbenzidine (TMB) substrate is added to the plate and after 30 minutes, the plates are read in an ELISA plate reader at an OD of 650 nm. Compound dose response was measured in an 8-point dose curve diluted serially to determine the inhibitory concentration at 50% (EC50 value). […] Ranges of 50% effective concentrations (EC50s) for representative compounds within the scope of this invention are listed in Table 1. Preferred compounds have 50% effective concentrations at about 30 μM or less, more preferred compounds have 50% effective concentrations at about 5 μM or less, and most preferred compounds have 50% effective concentrations at about 0.5 μM or less.

As a reminder, the IC50 is the point on the concentration scale where inhibition reaches its midpoint. Consider `CNC(=O)c1c(-c2ccc(F)cc2)oc2cc(-c3cc(CO)on3)c(OC(C)C)cc12` [Example 37, 2-(4-Fluoro-phenyl)-6-(5-hydroxymethyl-isoxazol-3-yl)-5-isopropoxy-benzofuran-3-carboxylic acid methylamide], for which the IC50 on HCV NS5B was at most 0.5 µM. Further, the EC50 in experiment [1] was below 1 µM.

Turning to `CCOc1cc2c(C(=O)NC)c(-c3ccc(F)cc3)oc2cc1N(C)S(C)(=O)=O` [Example 38, 5-Ethoxy-2-(4-fluoro-phenyl)-6-(methanesulfonyl-methyl-amino)-benzofuran-3-carboxylic acid methylamide], the IC50 at HCV NS5B is at most 0.5 µM. Also, the EC50 in experiment [1] is below 1 µM.

`CNC(=O)c1c(-c2ccc(F)cc2)oc2cc(N(C)S(C)(=O)=O)c(OCc3ccc(C(=O)O)c(O)c3)cc12` [Example 39, 4-[2-(4-Fluoro-phenyl)-6-(methanesulfonyl-methyl-amino)-3-methylcarbamoyl-benzofuran-5-yloxymethyl]-2-hydroxy-benzoic acid]: the IC50 at HCV NS5B is at most 0.5 µM. Besides, the EC50 in experiment [1] is below 10 µM.

Take `CNC(=O)c1c(-c2ccc(F)cc2)oc2cc(-c3cc(CO)on3)c(OC)cc12` [Example 40, 2-(4-Fluoro-phenyl)-6-(5-hydroxymethyl-isoxazol-3-yl)-5-methoxy-benzofuran-3-carboxylic acid methylamide]: the IC50 at HCV NS5B was at most 0.5 µM. The EC50 in experiment [1] was below 1 µM.

`CNC(=O)c1c(-c2ccc(F)cc2)oc2cc(-c3nocc3CCO)c(OC)cc12` [Example 41, 2-(4-Fluoro-phenyl)-6-[4-(2-hydroxy-ethyl)-isoxazol-3-yl]-5-methoxy-benzofuran-3-carboxylic acid methylamide]: the half-inhibitory concentration (IC50) at HCV NS5B is at most 0.5 µM. In addition, the EC50 in experiment [1] is below 1 µM.

With `CNC(=O)c1c(-c2ccc(F)cc2)oc2cc(N(CCO)S(C)(=O)=O)c(OC)cc12` [Example 42, 2-(4-Fluoro-phenyl)-6-[(2-hydroxy-ethyl)-methanesulfonyl-amino]-5-methoxy-benzofuran-3-carboxylic acid methylamide], the IC50 at HCV NS5B is at most 0.5 µM. Besides, in experiment [1], the EC50 is below 1 µM.

Take `CNC(=O)c1c(-c2ccc(F)cc2)oc2cc(N(CCO)S(C)(=O)=O)c(C3CC3)cc12` [Example 43, 5-Cyclopropyl-2-(4-fluoro-phenyl)-6-[(2-hydroxy-ethyl)-methanesulfonyl-amino]-benzofuran-3-carboxylic acid methylamide]: the IC50 on HCV NS5B is at most 0.5 µM. In addition, in experiment [1], the EC50 is below 1 µM.

With `CCc1cc2c(C(=O)NC)c(-c3ccc(F)cc3)oc2cc1NS(C)(=O)=O` [Example 44, 5-Ethyl-2-(4-fluoro-phenyl)-6-methanesulfonylamino-benzofuran-3-carboxylic acid methylamide], at HCV NS5B, the IC50 was at most 0.5 µM. In addition, in experiment [1], the EC50 is below 10 µM.

As for `CCc1cc2c(C(=O)NC)c(-c3ccc(F)cc3)oc2cc1N(C)S(C)(=O)=O` [Example 45, 5-Ethyl-2-(4-fluoro-phenyl)-6-(methanesulfonyl-methyl-amino)-benzofuran-3-carboxylic acid methylamide], the IC50 at HCV NS5B is at most 0.5 µM. The EC50 in experiment [1] is below 1 µM.

Turning to `CCc1cc2c(C(=O)NC)c(-c3ccc(F)cc3)oc2cc1N(CCO)S(C)(=O)=O` [Example 46, 5-Ethyl-2-(4-fluoro-phenyl)-6-[(2-hydroxy-ethyl)-methanesulfonyl-amino]-benzofuran-3-carboxylic acid methylamide], the IC50 at HCV NS5B was at most 0.5 µM. Besides, in experiment [1], the EC50 is below 1 µM.

Regarding `CNC(=O)c1c(-c2ccc(F)cc2)oc2cc(C3CCCN3C(C)=O)c(OC)cc12` (centres unmarked) [Example 47, 6-(1-Acetyl-pyrrolidin-2-yl)-2-(4-fluoro-phenyl)-5-methoxy-benzofuran-3-carboxylic acid methylamide], the IC50 on HCV NS5B is at most 0.5 µM. In experiment [1], the EC50 is below 1 µM.

Regarding `CNC(=O)c1c(-c2ccc(F)cc2)oc2cc(C3CNC(=O)O3)c(OC)cc12` (centres unmarked) [Example 48, 2-(4-Fluoro-phenyl)-5-methoxy-6-(2-oxo-oxazolidin-5-yl)-benzofuran-3-carboxylic acid methylamide], the IC50 at HCV NS5B is at most 0.5 µM. Moreover, the EC50 in experiment [1] is below 10 µM.

As for `CNC(=O)c1c(-c2ccc(F)cc2)oc2cc(C(C)(C)O)c(OC)cc12` [Example 49, 2-(4-Fluoro-phenyl)-6-(1-hydroxy-1-methyl-ethyl)-5-methoxy-benzofuran-3-carboxylic acid methylamide], the IC50 at HCV NS5B is at most 0.5 µM. For the same compound, the EC50 in experiment [1] was below 1 µM.

For `CNC(=O)c1c(-c2ccc(F)cc2)oc2cc(-c3noc(C)n3)c(OC)cc12` [Example 50, 2-(4-Fluoro-phenyl)-5-methoxy-6-(5-methyl-[1,2,4]oxadiazol-3-yl)-benzofuran-3-carboxylic acid methylamide], the IC50 at HCV NS5B was at most 0.5 µM. The EC50 in experiment [1] is below 1 µM.

As for `CNC(=O)c1c(-c2ccc(F)cc2)oc2cc(-c3c(C)noc3C)c(OCCCO)cc12` [Example 51, 6-(3,5-Dimethyl-isoxazol-4-yl)-2-(4-fluoro-phenyl)-5-(3-hydroxy-propoxy)-benzofuran-3-carboxylic acid methylamide], at HCV NS5B, the IC50 is at most 0.5 µM. Besides, the EC50 in experiment [1] is below 1 µM.

With `CNC(=O)c1c(-c2ccc(F)cc2)oc2cc(N(C)S(C)(=O)=O)c(OCCN3CCOCC3)cc12` [Example 52, 2-(4-Fluoro-phenyl)-6-(methanesulfonyl-methyl-amino)-5-(2-morpholin-4-yl-ethoxy)-benzofuran-3-carboxylic acid methylamide], the IC50 on HCV NS5B is at most 0.5 µM. Besides, in experiment [1], the EC50 was below 1 µM.

`CNC(=O)c1c(-c2ccccc2)oc2ccc(OCc3ccccc3-c3ccccc3)cc12` [Example 53, 5-(Biphenyl-2-ylmethoxy)-2-phenyl-benzofuran-3-carboxylic acid methylamide]: the IC50 on HCV NS5B fell in the range of 5 to 30 µM. For the same compound, in experiment [1], the EC50 was below 30 µM.

For `CNC(=O)c1c(-c2ccc(OC)cc2)oc2ccc(OC)cc12` [Example 54, 5-Methoxy-2-(4-methoxy-phenyl)-benzofuran-3-carboxylic acid methylamide], the IC50 on HCV NS5B was in the range of 0.5 to 5 µM. Further, the EC50 in experiment [1] was below 10 µM.

As to `CNC(=O)c1c(-c2cccc(C(F)(F)F)c2)oc2ccc(OC)cc12` [Example 55, 5-Methoxy-2-(3-trifluoromethyl-phenyl)-benzofuran-3-carboxylic acid methylamide], the IC50 at HCV NS5B fell in the range of 0.5 to 5 µM. Further, the EC50 in experiment [1] is below 30 µM.

On to `CNC(=O)c1c(-c2ccc(C(F)(F)F)cc2)oc2ccc(OC)cc12` [Example 56, 5-Methoxy-2-(4-trifluoromethyl-phenyl)-benzofuran-3-carboxylic acid methylamide], for which the IC50 at HCV NS5B is 0.5 to 5 µM. For the same compound, the EC50 in experiment [1] was below 10 µM.

With `CCOc1ccc2oc(-c3ccccc3)c(C(=O)NC)c2c1` [Example 57, 5-Ethoxy-2-phenyl-benzofuran-3-carboxylic acid methylamide], the IC50 at HCV NS5B lay in the range of 0.5 to 5 µM. The EC50 in experiment [1] was above 30 µM.

For `CNC(=O)c1c(-c2ccccc2F)oc2ccc(OC)cc12` [Example 58, 2-(2-Fluoro-phenyl)-5-methoxy-benzofuran-3-carboxylic acid methylamide], the IC50 on HCV NS5B was in the range of 0.5 to 5 µM. Moreover, in experiment [1], the EC50 is below 10 µM.

On to `CNC(=O)c1c(-c2ccccc2)oc2ccc(OC(C)C)cc12` [Example 59, 5-Isopropoxy-2-phenyl-benzofuran-3-carboxylic acid methylamide], for which the IC50 on HCV NS5B was 0.5 to 5 µM. For the same compound, the EC50 in experiment [1] was below 30 µM.

As for `CCCCOc1ccc2oc(-c3ccccc3)c(C(=O)NC)c2c1` [Example 60, 5-Butoxy-2-phenyl-benzofuran-3-carboxylic acid methylamide], on HCV NS5B, the IC50 was in the range of 0.5 to 5 µM. Further, in experiment [1], the EC50 is below 30 µM.

As for `CCCOc1ccc2oc(-c3ccccc3)c(C(=O)NC)c2c1` [Example 61, 2-Phenyl-5-propoxy-benzofuran-3-carboxylic acid methylamide], the IC50 on HCV NS5B lay within 0.5 to 5 µM. Moreover, the EC50 in experiment [1] was below 30 µM.
